Measured values: US20200054643A1, “FUSED HETEROCYCLIC COMPOUNDS AS SELECTIVE BMP INHIBITORS” (Vanderbilt University, priority 2017, published 2020)

Legend:
BMP4 = BMP4 cell assay (BMP reporter); format: cell-based; details: Table 2
ALK2/ACVR1 = target: T1, ALK2/ACVR1 (Homo sapiens, UniProt Q04771); assay: BMP Type 1 receptor assay, ALK2/ACVR1; format: biochemical
T1 sequence (Q04771 21-509): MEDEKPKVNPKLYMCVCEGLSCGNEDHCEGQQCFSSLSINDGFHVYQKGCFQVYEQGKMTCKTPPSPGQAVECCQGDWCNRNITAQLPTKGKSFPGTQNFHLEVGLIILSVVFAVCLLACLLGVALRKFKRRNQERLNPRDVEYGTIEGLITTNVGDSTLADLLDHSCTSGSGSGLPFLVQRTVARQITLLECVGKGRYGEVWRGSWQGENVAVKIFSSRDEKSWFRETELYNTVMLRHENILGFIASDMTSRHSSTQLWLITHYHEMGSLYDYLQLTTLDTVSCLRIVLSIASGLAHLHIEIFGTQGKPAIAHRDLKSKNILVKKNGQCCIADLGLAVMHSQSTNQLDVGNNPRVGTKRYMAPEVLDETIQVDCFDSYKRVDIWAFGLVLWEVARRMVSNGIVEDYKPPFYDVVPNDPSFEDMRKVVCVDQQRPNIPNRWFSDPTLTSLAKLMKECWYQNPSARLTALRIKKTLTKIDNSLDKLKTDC

ALK5/TGFBR1 = target: T2, ALK5/TGFBR1 (Homo sapiens, UniProt P36897); assay: BMP Type 1 receptor assay, ALK5/TGFBR1; format: biochemical
T2 sequence (P36897 34-503): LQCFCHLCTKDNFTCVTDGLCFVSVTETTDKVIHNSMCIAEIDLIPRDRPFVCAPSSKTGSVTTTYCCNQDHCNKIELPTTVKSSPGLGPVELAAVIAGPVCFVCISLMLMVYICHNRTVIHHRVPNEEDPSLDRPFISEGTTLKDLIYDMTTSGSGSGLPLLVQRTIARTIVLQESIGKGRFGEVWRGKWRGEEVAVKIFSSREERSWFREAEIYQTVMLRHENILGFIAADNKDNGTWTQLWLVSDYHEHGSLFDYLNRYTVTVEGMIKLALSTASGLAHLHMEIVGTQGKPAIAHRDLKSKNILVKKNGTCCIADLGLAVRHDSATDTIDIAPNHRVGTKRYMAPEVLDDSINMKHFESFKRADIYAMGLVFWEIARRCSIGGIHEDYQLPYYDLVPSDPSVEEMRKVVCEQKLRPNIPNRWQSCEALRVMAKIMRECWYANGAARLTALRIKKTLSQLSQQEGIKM

ALK3/BMPRR1A = ALK3/BMPRR1A (Homo sapiens, UniProt P36894); assay: BMP Type 1 receptor assay, ALK3/BMPRR1A; format: biochemical
ALK6/BMPR1B = ALK6/BMPR1B (Homo sapiens, UniProt O00238); assay: BMP Type 1 receptor assay, ALK6/BMPR1B; format: biochemical
ALK1/ACVR1 = ALK1/ACVR1 (Homo sapiens, UniProt P37023); assay: BMP Type 1 receptor assay, ALK1/ACVR1; format: biochemical
ALK1/ACVR1, sequence (P37023 22-503): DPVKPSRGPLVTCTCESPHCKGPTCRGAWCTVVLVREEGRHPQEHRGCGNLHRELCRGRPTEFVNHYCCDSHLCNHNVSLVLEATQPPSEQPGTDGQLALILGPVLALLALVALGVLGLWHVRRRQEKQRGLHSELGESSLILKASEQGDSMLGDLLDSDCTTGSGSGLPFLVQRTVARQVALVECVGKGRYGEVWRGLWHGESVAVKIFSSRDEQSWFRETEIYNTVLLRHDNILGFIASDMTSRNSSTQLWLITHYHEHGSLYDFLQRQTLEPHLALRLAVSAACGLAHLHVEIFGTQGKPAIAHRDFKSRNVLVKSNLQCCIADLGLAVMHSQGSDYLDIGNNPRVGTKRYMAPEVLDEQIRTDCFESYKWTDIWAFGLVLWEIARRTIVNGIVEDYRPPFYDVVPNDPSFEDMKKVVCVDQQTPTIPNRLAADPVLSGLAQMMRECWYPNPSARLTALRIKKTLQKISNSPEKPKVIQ

ALK6/BMPR1B, sequence (O00238 14-502): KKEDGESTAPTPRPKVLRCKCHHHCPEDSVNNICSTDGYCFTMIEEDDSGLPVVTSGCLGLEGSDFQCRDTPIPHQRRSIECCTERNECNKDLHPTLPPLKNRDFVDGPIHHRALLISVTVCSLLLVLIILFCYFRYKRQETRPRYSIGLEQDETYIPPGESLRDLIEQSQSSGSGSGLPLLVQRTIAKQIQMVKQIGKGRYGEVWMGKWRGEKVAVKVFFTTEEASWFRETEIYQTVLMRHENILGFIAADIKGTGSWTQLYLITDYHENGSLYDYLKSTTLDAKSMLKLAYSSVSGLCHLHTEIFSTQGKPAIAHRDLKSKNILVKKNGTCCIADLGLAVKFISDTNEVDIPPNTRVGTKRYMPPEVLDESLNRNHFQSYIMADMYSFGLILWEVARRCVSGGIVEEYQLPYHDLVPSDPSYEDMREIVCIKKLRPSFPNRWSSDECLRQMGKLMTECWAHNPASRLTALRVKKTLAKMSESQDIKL
ALK3/BMPRR1A, sequence (P36894 24-532): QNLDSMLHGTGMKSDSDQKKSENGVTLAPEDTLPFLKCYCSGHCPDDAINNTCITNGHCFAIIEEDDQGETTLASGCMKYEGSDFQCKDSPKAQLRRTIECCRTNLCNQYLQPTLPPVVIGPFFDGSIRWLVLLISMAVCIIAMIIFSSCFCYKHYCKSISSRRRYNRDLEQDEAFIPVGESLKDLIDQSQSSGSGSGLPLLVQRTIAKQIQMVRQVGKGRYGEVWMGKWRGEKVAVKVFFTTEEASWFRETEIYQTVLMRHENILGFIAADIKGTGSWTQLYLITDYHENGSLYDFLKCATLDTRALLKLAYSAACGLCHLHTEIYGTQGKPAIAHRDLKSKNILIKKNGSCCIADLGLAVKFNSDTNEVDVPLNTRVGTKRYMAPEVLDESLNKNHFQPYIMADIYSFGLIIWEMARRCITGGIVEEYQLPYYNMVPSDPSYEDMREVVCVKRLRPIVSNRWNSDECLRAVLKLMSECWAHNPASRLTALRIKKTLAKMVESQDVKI

Compound	IC50 (ALK2/ACVR1) [nM]	IC50 (ALK5/TGFBR1) [nM]	IC50 (ALK3/BMPRR1A) [nM]	other results
CC(C)Oc1ccc(-c2cc3ncc(-c4ccnc5ccccc45)n3cn2)cc1	–	–	–	IC50 (BMP4): 8100 nM
c1ccc2c(-c3cnc4cc(-c5ccc6c(c5)OCCO6)ccn34)ccnc2c1 [Entry 5, 4-(7-(2,3-dihydrobenzo[b][1,4]dioxin-6-yl)imidazo[1,2-a]pyridin-3-yl)quinoline]	270	–	–	–
CN1CCN(c2ccc(-c3ccn4c(-c5ccnc6ccccc56)cnc4c3)cc2)CC1 [Entry 21, 4-(7-(4-(4-methylpiperazin-1-yl)phenyl)imidazo[1,2-a]pyridin-3-yl)quinoline]	–	3960	7.9	IC50 (ALK6/BMPR1B): 11 nM
CC(C)Oc1ccc(-c2ccn3c(-c4ccnc(Cl)c4)cnc3c2)cc1 [Entry 25, 3-(2-chloropyridin-4-yl)-7-(4-isopropoxyphenyl)imidazo[1,2-a]pyridine]	155	13600	118	IC50 (ALK1/ACVR1): 87 nM; IC50 (ALK6/BMPR1B): 340 nM
CC(C)Oc1ccc(-c2ccn3c(-c4ccnc(F)c4)cnc3c2)cc1 [Entry 26, 3-(2-fluoropyridin-4-yl)-7-(4-isopropoxyphenyl)imidazo[1,2-a]pyridine]	265	> 100000	–	–
c1ccc(-c2cnc3cc(-c4ccc(OCCN5CCOCC5)cc4)ccn23)cc1 [Entry 30, 4-(2-(4-(3-phenylimidazo[1,2-a]pyridin-7-yl)phenoxy)ethyl)morpholine]	645	> 100000	–	–
CC(C)Oc1ccc(-c2ccn3c(-c4cn[nH]c4)cnc3c2)cc1 [Entry 42, 7-(4-isopropoxyphenyl)-3-(1H-pyrazol-4-yl)imidazo[1,2-a]pyridine]	1970	> 100000	92	IC50 (ALK1/ACVR1): 494 nM; IC50 (ALK6/BMPR1B): 895 nM
Cc1cc(-c2cnc3cc(-c4ccc(OC(C)C)cc4)ccn23)ccn1 [Entry 45, 7-(4-isopropoxyphenyl)-3-(2-methylpyridin-4-yl)imidazo[1,2-a]pyridine]	149	3490	–	–
Cc1cc(-c2cnc3cc(-c4ccc(N5CCN(C)CC5)cc4)ccn23)c2ccccc2n1 [Entry 51, 2-methyl-4-(7-(4-(4-methylpiperazin-1-yl)phenyl)imidazo[1,2-a]pyridin-3-yl)quinoline]	26.5	–	–	–
CN1CCN(c2ccc(-c3ccn4c(-c5csc6nccnc56)cnc4c3)cc2)CC1 [Entry 60, 7-(7-(4-(4-methylpiperazin-1-yl)phenyl)imidazo[1,2-a]pyridin-3-yl)thieno [2,3-b]pyrazine]	–	–	40.1	–
CN1CCN(c2ccc(-c3ccn4c(-c5ccnc6ccsc56)cnc4c3)cc2)CC1 [Entry 62, 7-(7-(4-(4-methylpiperazin-1-yl)phenyl)imidazo[1,2-a]pyridin-3-yl) thieno[3,2-b]pyridine]	–	–	50.8	–
CN1CCN(c2ccc(-c3ccn4c(-c5ccncc5)cnc4c3)cc2)CC1 [Entry 66, 7-(4-(4-methylpiperazin-1-yl)phenyl)-3-(pyridin4-yl)imidazo[1,2-a]pyridine]	46	–	–	–
Cc1cc(-c2cnc3cc(-c4ccc(N5CCN(C)CC5)cc4)ccn23)ccn1 [Entry 67, 7-(4-(4-methylpiperazin-1-yl)phenyl)-3-(2-methylpyridin-4-yl)imidazo[1,2-a]pyridine]	20	–	–	–
c1ccc2c(-c3cnc4cc(-c5ccc(OCCN6CCOCC6)cc5)ccn34)ccnc2c1 [Example 1, 4-(2-(4-(3-(quinolin-4-yl)imidazo[1,2-a]pyridin-7-yl)phenoxy)ethyl)morpholine]	–	–	–	IC50 (BMP4): 62 nM
c1ccc2c(-c3cnc4cc(-c5ccc6c(c5)OCCO6)ccn34)ccnc2c1 [drawing 207]	–	–	–	IC50 (BMP4): 2890 nM
